Data taken from US9573913B2, “Cathepsin cysteine protease inhibitors” (Merck Sharp & Dohme Corp., priority 2013, dated 2017).

What was measured:
human cathepsin F = biological target: T1, human cathepsin F (Homo sapiens, UniProt Q9UBX1); test: Cathepsin F assay (hCat F); format: biochemical; details: Z-Phe-Arg-AMC substrate, pH 5.5, 15 min preincubation; read-out: hCat F (IP (nM))
T1 sequence (Q9UBX1 271-484): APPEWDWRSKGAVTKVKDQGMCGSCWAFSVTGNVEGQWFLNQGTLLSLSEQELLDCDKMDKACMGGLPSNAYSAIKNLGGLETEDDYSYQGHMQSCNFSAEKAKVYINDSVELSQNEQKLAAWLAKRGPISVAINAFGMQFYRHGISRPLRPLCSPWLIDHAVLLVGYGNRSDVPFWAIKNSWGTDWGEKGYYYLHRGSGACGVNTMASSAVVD
Protocol: Cathepsin F assay (hCat F)
(§1) Serial dilutions (1/3) from 500 μM down to 0.025 μM of test compounds were prepared in dimethyl sulfoxide (DMSO). Then 0.5 μL of DMSO from each dilution were added to 18.75 μL of assay buffer (MES, 50 mM (pH 5.5); EDTA, 2.5 mM; DTT, 2.5 mM and 10% DMSO) containing human cathepsin F (10 nM) in assay buffer solution. The assay solutions were mixed for 5-10 seconds on a shaker plate and incubated for 15 minutes at room temperature. Z-Phe-Arg-AMC (8 μM) in 6.25 μL of assay buffer was added to the assay solutions. Hydrolysis of the coumarin leaving group (AMC) was followed by spectrofluorometry (Exλ=360 nm; Emλ=460 nm) for 20 minutes. Percent of inhibition were calculated by fitting experimental values to standard mathematical model for dose response curve.

human cathepsin K = human cathepsin K (UniProt P43236); test: Cathepsin K Assay (hrbCat K); format: biochemical; details: Z-Leu-Arg-AMC substrate, pH 5.5, 15 min preincubation; read-out: hrbCat K (IP (nM))
Protocol: Cathepsin K Assay (hrbCat K)
as §1, with “Then” for “Serial dilutions (1/3) from 500 μM down to 0.025 μM of test compounds were prepared in dimethyl sulfoxide (DMSO). Then”, “K (0.4” for “F (10”, “Z-Leu-Arg-AMC” for “Z-Phe-Arg-AMC”, “30” for “20”

SMILES | IC50 (human cathepsin F) | IC50 (human cathepsin K)
N#CC(CC(F)(F)F)NC(=O)[C@@H]1CCCC[C@H]1c1nc(-c2ccc(F)cn2)sc1-c1ccc(N2CCS(=O)(=O)CC2)cc1 (single isomer, unassigned) [Example 194, (1R,2R)-N-((S or R)-1-cyano-3,3,3-trifluoropropyl)-2-(5-(4-(1,1-dioxidothiomorpho-lino)phenyl)-2-(5-fluoropyridin-2-yl)thiazol-4-yl)cyclohexane-carboxamide] | 1920 nM | 3.1 nM
CC1CC1(C#N)NC(=O)[C@@H]1CCCC[C@H]1c1nc(-c2ccc(F)cn2)sc1-c1ccc(N2CCS(=O)(=O)CC2)cc1 (single isomer, unassigned) [Example 202, (1R,2R)-N-((1S,2S or 1S,2R or 1R,2S or 1R,2R)-1-cyano-2-methylcyclopropyl)-2-(5-(4-(1,1-dioxidothiomorpho-lino)phenyl)-2-(5-fluoropyridin-2-yl)thiazol-4-yl)cyclohexane-carboxamide] | ≥ 10000 nM | 6.6 nM
N#CC1(NC(=O)[C@@H]2C[C@@H](F)CC[C@H]2c2nc(C3CC(F)C3)sc2-c2ccc(N3CCS(=O)(=O)CC3)cc2)CC1 (single isomer, unassigned) [Example 233, (1R,2R,5S)-N-(1-cyanocyclopropyl)-2-(5-(4-(1,1-dioxidothiomorpho-lino)phenyl)-2-((1S,3S or 1R,3R)-3-fluorocyclobutyl)thiazol-4-yl)-5-fluorocyclohexane-carboxamide] | ≥ 10000 nM | 6 nM
C[C@@H](C#N)NC(=O)[C@@H]1C[C@@H](F)CC[C@H]1c1nc(C2CC(F)C2)sc1-c1ccc(N2CCS(=O)(=O)CC2)cc1 (single isomer, unassigned) [Example 234, (1R,2R,5S)-N-((S)-1-cyanoethyl)-2-(5-(4-(1,1-dioxidothiomorpho-lino)phenyl)-2-((1S,3S or 1R,3R)-(3-fluorocyclobutyl)thiazol-4-yl)-5-fluorocyclohexane-carboxamide] | 6100 nM | 4 nM
C[C@@H](C#N)NC(=O)[C@@H]1C[C@@H](F)CC[C@H]1c1nc(C2CC(F)C2)sc1-c1ccc(N2CCS(=O)(=O)CC2)cc1 (single isomer, unassigned) [Example 236, (1R,2R,5S)-N-((S)-1-cyanoethyl)-2-(5-(4-(1,1-dioxidothiomorpho-lino)phenyl)-2-((1R,3R or 1S,3S)-(3-fluorocyclobutyl)thiazol-4-yl)-5-fluorocyclohexane-carboxamide] | 4500 nM | 3.7 nM
N#CC1(NC(=O)[C@@H]2CCCC[C@H]2c2nc(C3CC(F)(F)C3)sc2-c2ccc(N3CCS(=O)(=O)CC3)cc2)CC1 [Compound 1, (1R,2R)-N-(1-cyanocyclopropyl)-2-(2-(3,3-difluorocyclobutyl)-5-(4-(1,1-dioxidothiomorpholino)phenyl)thiazol-4-yl)cyclohexanecarboxamide] | 1000 nM | 5.8 nM
N#CC1(NC(=O)[C@@H]2CCCC[C@H]2c2nc(-c3ccc(F)cc3)sc2-c2ccc(N3CCS(=N)(=O)CC3)cc2)CC1 [Compound 5, (1R,2R)-N-(1-Cyanocyclopropyl)-2-(2-(4-fluorophenyl)-5-(4-(1-imino-1-oxidothiomorpholino)phenyl)thiazol-4-yl)cyclohexanecarboxamide] | 3330 nM | 1.9 nM
N#CC1(NC(=O)[C@@H]2CCCC[C@H]2c2nc(N3CCC(F)(F)CC3)sc2-c2ccc(N3CCS(=O)(=O)CC3)cc2)CC1 [Compound 6, (1R,2R)-N-(1-cyanocyclopropyl)-2-(2-(4,4-difluoropiperidin-1-yl)-5-(4-(1,1-dioxidothiomorpholino)phenyl)thiazol-4-yl)cyclohexanecarboxamide] | 1000 nM | 3.6 nM
N#CC1(NC(=O)[C@@H]2C[C@@H](F)CC[C@H]2c2nc(-c3cncc(F)c3)sc2-c2ccc(N3CCS(=O)(=O)CC3)cc2)CC1 [Compound 7, (1R,2R,5S)-N-(1-cyanocyclopropyl)-2-(5-(4-(1,1-dioxidothiomorpholino)phenyl)-2-(5-fluoropyridin-3-yl)thiazol-4-yl)-5-fluorocyclohexanecarboxamide] | 1920 nM | 0.9 nM
C[C@@H](C#N)NC(=O)[C@@H]1C[C@@H](F)CC[C@H]1c1nc(-c2ccc(F)cn2)sc1-c1ccc(N2CCS(=O)(=O)CC2)cc1 [Compound 8, (1R,2R,5S)-N—((S)-1-Cyanoethyl)-2-(5-(4-(1,1-dioxidothiomorpholino)phenyl)-2-(5-fluoropyridin-2-yl)thiazol-4-yl)-5-fluorocyclohexanecarboxamide] | 1100 nM | 1.3 nM
Cc1nc([C@@H]2CC[C@H](F)C[C@H]2C(=O)NC2(C#N)CC2)c(-c2ccc(N3CCOCC3)cc2)s1 [Compound 9, (1R,2R,5S)-N-(1-cyanocyclopropyl)-5-fluoro-2-(2-methyl-5-(4-morpholinophenyl)thiazol-4-yl)cyclohexanecarboxamide] | ≥ 10000 nM | 44.1 nM
N#CC1(NC(=O)[C@@H]2CCCC[C@H]2c2nc(-c3ccc(F)cc3)oc2-c2ccc(N3CCS(=O)(=O)CC3)cc2)CC1 [Example 10, (1R,2R)-N-(1-cyanocyclopropyl)-2-(5-(4-(1,1-dioxidothiomorpholino)phenyl)-2-(4-fluorophenyl)oxazol-4-yl)cyclohexanecarboxamide] | 1110 nM | 2.5 nM
N#CC1(NC(=O)[C@@H]2CCCC[C@H]2c2nc(C3CCOCC3)sc2-c2ccc(N3CCS(=O)(=O)CC3)cc2)CC1 [Example 11, (1R,2R)-N-(1-Cyanocyclopropyl)-2-(5-(4-(1,1-dioxidothiomorpholino)phenyl)-2-(tetrahydro-2H-pyran-4-yl)thiazol-4-yl)cyclohexanecarboxamide] | ≥ 10000 nM | 3 nM
Cc1nc([C@@H]2CCCC[C@H]2C(=O)NCC#N)c(-c2ccc(C(=O)N3CCOCC3)cc2)s1 [Example 12, (1R,2R)-N-(cyanomethyl)-2-(2-methyl-5-(4-(morpholine-4-carbonyl)phenyl)thiazol-4-yl)cyclohexanecarboxamide] | 5170 nM | 17 nM
CC(C)(C)c1nc([C@@H]2CC[C@H](F)C[C@H]2C(=O)NC2(C#N)CC2)c(-c2ccc(N3CCS(=N)(=O)CC3)cc2)o1 [Example 13, (1R,2R,5S)-2-(2-(tert-Butyl)-5-(4-(1-imino-1-oxidothiomorpholino)phenyl)oxazol-4-yl)-N-(1-cyanocyclopropyl)-5-fluorocyclohexanecarboxamide] | ≥ 10000 nM | 6 nM
CN=S1(=O)CCN(c2ccc(-c3oc(C(C)(C)C)nc3[C@@H]3CC[C@H](F)C[C@H]3C(=O)NC3(C#N)CC3)cc2)CC1 [Example 14, (1R,2R,5S)-2-(2-(tert-Butyl)-5-(4-(1-(methylimino)-1-oxidothiomorpholino)phenyl)oxazol-4-yl)-N-(1-cyanocyclopropyl)-5-fluorocyclohexanecarboxamide] | ≥ 10000 nM | 5.2 nM
CC(C)OC(=O)N1CC(c2ccc(-c3sc(-c4ccc(F)cc4)nc3[C@@H]3CCCC[C@H]3C(=O)NC3(C#N)CC3)cc2)C1 [Example 15, Isopropyl 3-(4-(4-((1R,2R)-2-((1-cyanocyclopropyl)carbamoyl)cyclohexyl)-2-(4-fluorophenyl)thiazol-5-yl)phenyl)azetidine-1-carboxylate] | 124 nM | 2.4 nM
N#CC1(NC(=O)[C@@H]2CCCC[C@H]2c2nc(Oc3ccccc3)sc2-c2ccc(N3CCS(=O)(=O)CC3)cc2)CC1 [Example 16, (1R,2R)-N-(1-Cyanocyclopropyl)-2-(5-(4-(1,1-dioxidothiomorpholino)phenyl)-2-phenoxythiazol-4-yl)cyclohexanecarboxamide] | 931 nM | 2.5 nM
Cc1nc([C@@H]2CCCC[C@H]2C(=O)NCC#N)c(-c2ccc(N3CCS(=O)(=O)CC3)cc2)s1 [Example 17, (1R,2R)-N-(cyanomethyl)-2-(5-(4-(1,1-dioxidothiomorpho-lino)phenyl)-2-methylthiazol-4-yl)cyclohexane-carboxamide] | 1140 nM | 2 nM
N#CCNC(=O)[C@@H]1CCCC[C@H]1c1nc(C2CC2)sc1-c1ccc(N2CCS(=O)(=O)CC2)cc1 [Example 18, (1R,2R)-N-(cyanomethyl)-2-(2-cyclopropyl-5-(4-(1,1-dioxidothiomorpho-lino)phenyl)thiazol-4-yl)cyclohexane-carboxamide] | 564 nM | 1.2 nM
CC(C)(C)c1nc([C@@H]2CCCC[C@H]2C(=O)NCC#N)c(-c2ccc(N3CCS(=O)(=O)CC3)cc2)s1 [Example 19, (1R,2R)-2-(2-(tert-butyl)-5-(4-(1,1-dioxidothiomorpho-lino)phenyl)thiazol-4-yl)-N-(cyanomethyl)cyclo-hexanecarboxamide] | 851 nM | 0.7 nM
